In patent US10278942B2 (PELOTON THERAPEUTICS, INC., priority 2015, dated 2019) one finds IC50 data, which are given here for 69 compounds.

The structures appear in SMILES notation. pIC50: −log10 of the molar value.

T1 sequence (Q99814 240-350 limits assumed): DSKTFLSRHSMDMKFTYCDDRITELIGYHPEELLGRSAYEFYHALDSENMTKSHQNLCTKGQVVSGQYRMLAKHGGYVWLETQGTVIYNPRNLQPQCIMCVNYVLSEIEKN

The first experiment concerns the target T1, HIF-2α HIS TAG-PASB Domain (Homo sapiens, UniProt Q99814).
T1 construct: 100 nM HIF-2α HIS TAG-PASB Domain
The experiment is described as follows: HIF-2α Scintillation Proximity Assay (SPA). Format: binding. The conditions noted are these: Scintillation Proximity Assay IC50 (nM). The protocol:
The total assay volume was about 100 μL in the following configuration: 2 μL compound in 100% DMSO, 88 μL buffer with protein and probe and 10 μL of SPA beads. […] The percent inhibition was determined and IC50 values were calculated using the Dotmatics system based on the following equation: % inhibition=[(high control−sample)/(high control−low control)]×100.
As to `CS(=O)(=O)c1ccc(Oc2cc(F)cc(Cl)c2)c(Br)c1` [Compound 138], the IC50 (in general, the point on the concentration scale where inhibition reaches its midpoint) is above 1000 nM.
On the same count and under the same terms, for `CC1(C)C(O)c2c(ccc(Oc3cc(F)cc(Cl)c3)c2Br)S1(=O)=O` (stereo not drawn) [Compound 406] the value was above 1000 nM.
For `O=S(=O)(c1ccc(Oc2cc(F)cc(Cl)c2)c(Br)c1)C(F)(F)F` [Compound 116], the IC50 was in the range of 50 to 249 nM.
Still for that read-out and setting: to `O=S1(=O)c2ccc(Oc3cc(F)cc(Cl)c3)cc2C(O)C1(F)F` (stereo not drawn) [Compound 362] belongs above 1000 nM.

Staying with this experiment, now noted: read-out: Scintillation Proximity Assay IC50.
As to `C/C=C/c1c(S(=O)(=O)C(F)F)ccc(Oc2cc(F)cc(C#N)c2)c1C#N` [Compound 178], the pIC50 (in general, the IC50 on a negative log10 scale, so that one unit is a factor of ten) is 6.00 to 6.60.
In the case of `C[C@]1(F)Cc2c(Oc3cc(F)cc(C#N)c3)ccc(S(C)(=O)=O)c2[C@@H]1O` [Compound 298], the pIC50 was below 6.00.
On the same count and under the same terms, to `O=S(=O)(c1ccc(CC(O)CO)c2c1C(O)C(F)(F)C2)C(F)(F)F` (stereo not drawn) [Compound 521, 3-(2,2-difluoro-1-hydroxy-7-((trifluoromethyl)sulfonyl)-2,3-dihydro-1H-inden-4-yl)propane-1,2-diol] belongs below 6.00; to `C=CS(=O)(=O)c1ccc(Oc2cc(F)cc(Cl)c2)c(Br)c1` [Compound 130], below 6.00; to `CNCc1c(S(=O)(=O)C(F)(F)F)ccc(Oc2cc(F)cc(Cl)c2)c1Br` [Compound 109], below 6.00.
Turning to `CS(=O)(=O)c1ccc(OCCC2(C#N)CC2)c2c1[C@H](O)C(F)(F)[C@@H]2F` [Compound 772], the pIC50 was below 6.00.
On the same count and under the same terms, for `COCCCOc1ccc(S(=O)(=O)C(F)(F)F)c2c1CCC2O` (stereo not drawn) [Compound 600] the value was below 6.00.
Same read-out and setting: to `O=S(=O)(c1ccc(CCO)c2c1C(O)C(F)(F)C2)C(F)(F)F` (stereo not drawn) [Compound 520] belongs below 6.00; to `CC(C)(C)OC(=O)N[C@H]1C[C@@H](O)c2c(S(=O)(=O)C(F)(F)F)ccc(Oc3cc(F)cc(C#N)c3)c21` [Compound 278], below 6.00.
As for `O=S(=O)(c1ccc(-c2ccccc2O)c2c1[C@H](O)C(F)(F)C2)C(F)(F)F` [Compound 564], the negative logarithm of the IC50 (pIC50) is below 6.00.
Turning to `OC1c2c(I)cc(I)c(OCC(F)F)c2CC1(F)F` (stereo not drawn) [Compound 666], the pIC50 is below 6.00.
Same read-out and setting: for `O=C(O)Cc1ccc(S(=O)(=O)C(F)(F)F)c2c1CC[C@H]2O` [Compound 524, (R)-2-(1-hydroxy-7-((trifluoromethyl)sulfonyl)-2,3-dihydro-1H-inden-4-yl)acetic acid] the value was below 6.00; for `O=S(=O)(c1ccc(CCCO)c2c1C(O)CC2)C(F)(F)F` (stereo not drawn) [Compound 522, 4-(3-hydroxypropyl)-7-((trifluoromethyl)sulfonyl)-2,3-dihydro-1H-inden-1-ol], 6.00 to 6.60.
Still for that read-out and setting: to `CN(C)C(=O)COc1ccc(S(=O)(=O)C(F)(F)F)c2c1CC(F)(F)C2O` (stereo not drawn) [Compound 632] belongs below 6.00; to `CNC(=O)COc1ccc(S(=O)(=O)C(F)(F)F)c2c1CC(F)(F)C2O` (stereo not drawn) [Compound 638], below 6.00.
The same measure, in the same setting: for `CNS(=O)(=O)c1ccc(Oc2cc(F)cc(F)c2)c2c1C(O)CC2` (stereo not drawn) [Compound 211] the value was below 6.00; for `O=S(=O)(c1ccc(Oc2cc(F)cc(Cl)c2)c(Cl)c1CNC1CCCOC1)C(F)F` (stereo not drawn) [Compound 49], below 6.00.
Turning to `OC1c2cccc(OCC(F)F)c2CC1(F)F` (stereo not drawn) [Compound 651], the pIC50 is below 6.00.
On the same count and under the same terms, to `C=CCN=S(=O)(c1ccc(Oc2cc(F)cc(C#N)c2)c2c1[C@H](O)C(F)(F)C2)C(F)(F)F` (stereo partly drawn) [Compound 307] belongs 6.00 to 6.60; to `N#Cc1cc(F)cc(Oc2ccc3c(c2C(F)F)C(O)(C(F)(F)F)C(F)(F)S3(=O)=O)c1` (stereo not drawn) [Compound 445], below 6.00; to `O=S(=O)(c1ccc(O[C@H]2CCCc3cn[nH]c32)c2c1[C@H](O)C(F)(F)C2)C(F)(F)F` [Compound 732], below 6.00.
The same measure, in the same setting: to `O=C1c2c(ccc(Oc3cc(F)cc(Cl)c3)c2Br)S(=O)(=O)C1(F)F` [Compound 354] belongs below 6.00; to `CC1(C)C=C(c2ccc(S(=O)(=O)C(F)(F)F)c3c2CC(F)(F)[C@H]3O)C(O)CC1` (stereo partly drawn) [Compound 543], below 6.00; to `CS(=O)(=O)N1CCCC(Oc2ccc(S(=O)(=O)C(F)(F)F)c3c2CC(F)(F)C3O)C1` (stereo not drawn) [Compound 628], below 6.00.
The same measure, in the same setting: to `CC(Oc1ccc(S(=O)(=O)C(F)(F)F)c2c1CC(F)(F)C2O)c1ccccc1` (stereo not drawn) [Compound 664] belongs below 6.00; to `N#Cc1cc(F)cc(Oc2ccc3c(c2C#N)C(O)(C(F)(F)F)CS3(=O)=O)c1` (stereo not drawn) [Compound 450], below 6.00.
Consider `O=S(=O)(c1ccc(OC2CCc3ncccc32)c2c1[C@H](O)C(F)(F)C2)C(F)(F)F` (stereo partly drawn) [Compound 733], for which the pIC50 was below 6.00.
Same read-out and setting: for `Cc1c([S+]([O-])C(F)F)ccc(Oc2cc(F)cc(Cl)c2)c1C#N` (stereo not drawn) [Compound 37] the value was below 6.00.
On the same count and under the same terms, for `N#CN=S(=O)(CF)c1ccc(Oc2cc(F)cc(C#N)c2)c2c1[C@H](O)CC2` (stereo partly drawn) [Compound 282] the value was below 6.00; for `CCOc1ccc(S(=O)(=O)C(F)(F)F)c2c1CCC2O` (stereo not drawn) [Compound 589], below 6.00.
Same read-out and setting: to `CS(=O)(=O)c1ccc(Nc2cncc(Cl)c2)c2c1C(O)C(F)(F)C2` (stereo not drawn) [Compound 500] belongs below 6.00.
On to `CS(=O)(=O)c1ccc(O[C@H]2CC[C@H](C#N)CC2)c2c1[C@H](O)C(F)(F)[C@@H]2F` [Compound 757], for which the pIC50 was below 6.00.
Same read-out and setting: for `COc1ccc(S(=O)(=O)C(F)(F)F)c2c1CC(F)(F)C2O` (stereo not drawn) [Compound 590] the value was below 6.00; for `NC(=O)Cc1ccc(S(=O)(=O)C(F)(F)F)c2c1CC(F)(F)[C@H]2O` [Compound 527], below 6.00.
On the same count and under the same terms, to `CS(=O)(=NC#N)c1ccc(Oc2cncc(C#N)c2)c2c1[C@H](O)C(F)(F)[C@@H]2F` (stereo partly drawn) [Compound 319] belongs above 7.30; to `O=S(=O)(c1ccc(Nc2ccc(F)c(Cl)c2)c2c1C(O)CC2)C(F)(F)F` (stereo not drawn) [Compound 504], below 6.00; to `N#Cc1cc(F)cc(Oc2ccc3c(c2C(F)F)C(=N)C(F)S3(=O)=O)c1` (stereo not drawn) [Compound 373], below 6.00.
For `CS(=O)(=O)c1ccc(OC[C@H]2CC2(F)F)c2c1[C@H](O)C(F)(F)[C@@H]2F` [Compound 769], the pIC50 was 6.60 to 7.30.
Same read-out and setting: to `Fc1cc(Cl)cc(Oc2ccc(C(F)(F)F)c(Cl)c2Br)c1` [Compound 97] belongs below 6.00; to `NC1CS(=O)(=O)c2ccc(Oc3cc(F)cc(F)c3)c(C(F)F)c21` (stereo not drawn) [Compound 367], below 6.00.
For the compound `N#Cc1ccc(Oc2cc(F)cc(F)c2)c2c1[C@H](O)CC2` [Compound 66], the pIC50 is below 6.00.
On the same count and under the same terms, to `N#Cc1c(Oc2cc(F)cc(Cl)c2)ccc(S(=O)(=O)C(F)(F)F)c1NCCO` [Compound 154] belongs below 6.00; to `CS(=O)(=O)c1ccc(N2CCC[C@H](O)C2)c2c1[C@H](O)C(F)(F)[C@@H]2F` [Compound 484, (S)-1-((1S,3R)-2,2,3-trifluoro-1-hydroxy-7-(methylsulfonyl)-2,3-dihydro-1H-inden-4-yl)piperidin-3-ol], below 6.00.
The same measure, in the same setting: to `OC1c2c(Br)ccc(OCC(F)F)c2CC1(F)F` (stereo not drawn) [Compound 687] belongs below 6.00; to `O=S(=O)(c1ccc(OC2CCCNC2)c2c1[C@H](O)C(F)(F)C2)C(F)(F)F` (stereo partly drawn) [Compound 797], below 6.00.
Same read-out and setting: for `O=S(=O)(c1ccc(NCc2ccco2)c2c1[C@H](O)C(F)(F)C2)C(F)F` [Compound 529] the value was below 6.00.
In the case of `COC(=O)c1c([S+]([O-])C(F)F)ccc(Oc2cc(F)cc(Cl)c2)c1Br` (stereo not drawn) [Compound 82], the pIC50 was below 6.00.
Still for that read-out and setting: for `N#Cc1c(S(=O)(=O)C(F)F)ccc(Oc2cc(F)cc(Cl)c2)c1Br` [Compound 76] the value was 6.00 to 6.60.
Turning to `O=S(=O)(c1ccc(Oc2cc(F)cc(Cl)c2)c(Cl)c1CNC1CCOCC1)C(F)F` [Compound 48], the pIC50 was 6.00 to 6.60.
For `O=S(=O)(c1ccc(-c2ccn[nH]2)c2c1[C@H](O)C(F)(F)C2)C(F)(F)F` [Compound 561], the pIC50 is below 6.00.
For `CS(=O)(=O)N=S(=O)(CF)c1ccc(Oc2cc(F)cc(C#N)c2)c2c1[C@H](O)C(F)(F)C2` (stereo partly drawn) [Compound 284], the pIC50 was below 6.00.
For the compound `CS(=O)(=O)c1ccc(Oc2cncc(F)c2)c2c1[C@H](O)C(F)(F)[C@H]2F` [Compound 330], the pIC50 was below 6.00.
Regarding `O[C@H]1c2c(C(F)(F)F)ccc(OC3CC(F)(F)C3)c2CC1(F)F` [Compound 587], the pIC50 is above 7.30.
On the same count and under the same terms, to `N#Cc1cncc(Oc2ccc(S(=O)(=O)CF)c3c2[C@@H](F)C(F)(F)[C@H]3O)c1` [Compound 344] belongs above 7.30.
Still for that read-out and setting: to `CS(=O)(=O)c1ccc(Nc2ccc(F)cc2)c2c1C(O)C(F)(F)C2` (stereo not drawn) [Compound 501] belongs below 6.00.
Still for that read-out and setting: to `O=S(=O)(c1ccc(Oc2cc(F)cc3[nH]ncc23)c2c1C(O)C(F)(F)C2)C(F)(F)F` (stereo not drawn) [Compound 262] belongs below 6.00; to `N#Cc1ccc(F)c2c1CC(F)(F)C2O` (stereo not drawn) [Compound 519], below 6.00.
As for `NS(=O)(=O)c1ccc(Oc2cncc(F)c2)c2c1[C@H](O)C(F)(F)[C@@H]2F` [Compound 341], the pIC50 is above 7.30.
Still for that read-out and setting: to `O=[N+]([O-])c1c(Oc2cccc(Cl)c2)ccc(C(F)(F)F)c1Cl` [Compound 204] belongs 6.60 to 7.30.
Still for that read-out and setting: to `O=S(=O)(CF)c1ccc(Oc2cc(F)cc(Cl)c2)c(Br)c1` [Compound 137] belongs 6.00 to 6.60; to `Cc1n[nH]c(C)c1-c1ccc(S(=O)(=O)C(F)(F)F)c2c1CC(F)(F)[C@H]2O` [Compound 562], below 6.00.
The same measure, in the same setting: to `CC1(C)CCC(=O)[C@@H](c2ccc(S(=O)(=O)C(F)(F)F)c3c2CC(F)(F)[C@H]3O)C1` [Compound 546] belongs below 6.00.
On to `O=S(=O)(c1ccc(Nc2cncc(Cl)c2)c2c1C(O)CC2)C(F)(F)F` (stereo not drawn) [Compound 503], for which the pIC50 is below 6.00.
On the same count and under the same terms, to `N#CN=S(=O)(c1ccc(Oc2cc(F)cc(C#N)c2)c2c1[C@H](O)[C@H](F)C2)C(F)F` (stereo partly drawn) [Compound 297] belongs below 6.00.
On to `CS(=O)(=O)c1ccc(C(F)(F)CO)c2c1C(O)C(F)(F)C2` (stereo not drawn) [Compound 555], for which the pIC50 is below 6.00.
